Key:
Test in all cases: relative viability (nuclei count vs DMSO), 5 days (fraction); higher = more cells survive
Kobe2602 + Phenformin = compound: C1=CC(=CC=C1NC(=S)NNC2=C(C=C(C=C2[N+](=O)[O-])C(F)(F)F)[N+](=O)[O-])F [Kobe2602] + N=C(N)NC(=N)NCCc1ccccc1 [Phenformin] (partner 250 µM)
In short: (§1)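 Five library-drug doses in √10 steps were combined with a fixed anchor-drug dose, or a single drug was given alone, by pin tool to lung cancer cell lines in 1536-well plates the day after seeding. Nuclei were stained and counted after 5 days. Relative viability is the nuclei count in treated wells over that in vehicle wells, taken as the median of duplicate plates.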

[1] = compound: COc1cc2nccc(Oc3ccc(NC(=O)C4(C(=O)Nc5ccc(F)cc5)CC4)cc3)c2cc1OC [Cabozantinib] + N=C(N)NC(=N)NCCc1ccccc1 [Phenformin] (partner 250 µM)
In short: as §1

Zosuquidar + Tozasertib = compound: O[C@@H](COc1cccc2ncccc12)CN1CCN([C@@H]2c3ccccc3[C@@H]3[C@H](c4ccccc42)C3(F)F)CC1 [Zosuquidar] + Cc1cc(Nc2cc(N3CCN(C)CC3)nc(Sc3ccc(NC(=O)C4CC4)cc3)n2)n[nH]1 [Tozasertib] (partner 0.1 µM)
In short: as §1

[2] = compound: COc1cc2nccc(Oc3ccc(NC(=O)C4(C(=O)Nc5ccc(F)cc5)CC4)cc3)c2cc1OC [Cabozantinib] + C[C@@H](Oc1cc(-c2cnn(C3CCNCC3)c2)cnc1N)c1c(Cl)ccc(F)c1Cl [Crizotinib] (partner 1 µM)
In short: as §1

| Cell Line | relative viability (Kobe2602 + Phenformin; first compound 0.2 µM) | relative viability (Kobe2602 + Phenformin; first compound 0.6325 µM) | relative viability (Kobe2602 + Phenformin; first compound 2 µM) | relative viability (Kobe2602 + Phenformin; first compound 6.325 µM) | relative viability (Kobe2602 + Phenformin; first compound 20 µM) | relative viability ([1]; first compound 0.02 µM) | relative viability ([1]; first compound 0.06325 µM) | relative viability ([1]; first compound 0.2 µM) | relative viability ([1]; first compound 0.6325 µM) | relative viability ([1]; first compound 2 µM) | relative viability (Zosuquidar + Tozasertib; first compound 0.01 µM) | relative viability (Zosuquidar + Tozasertib; first compound 0.03162 µM) | relative viability (Zosuquidar + Tozasertib; first compound 0.1 µM) | relative viability (Zosuquidar + Tozasertib; first compound 0.3162 µM) | relative viability (Zosuquidar + Tozasertib; first compound 1 µM) | relative viability ([2]; first compound 0.02 µM) | relative viability ([2]; first compound 0.06325 µM) | relative viability ([2]; first compound 0.2 µM) | relative viability ([2]; first compound 0.6325 µM) | relative viability ([2]; first compound 2 µM) |
| --- | --- | --- | --- | --- | --- | --- | --- | --- | --- | --- | --- | --- | --- | --- | --- | --- | --- | --- | --- | --- |
| NCI-H522 | 0.731 | 0.63 | 0.646 | 0.732 | 0.623 | 0.692 | 0.657 | 0.633 | 0.637 | 0.716 | 0.536 | 0.537 | 0.585 | 0.601 | 0.556 | – | – | – | – | – |
| LOU-NH91 | 0.669 | 0.775 | 0.639 | 0.614 | 0.658 | 0.602 | 0.931 | – | 0.792 | 0.731 | 0.697 | 0.624 | – | 0.706 | 0.71 | 0.736 | 0.751 | 0.531 | 0.728 | 0.725 |
| NCI-H1355 | 0.479 | 0.479 | 0.476 | 0.415 | 0.433 | 0.435 | 0.516 | 0.475 | 0.436 | 0.424 | 0.527 | 0.542 | 0.623 | 0.612 | 0.519 | 1.11 | 1.16 | 1.09 | 1.05 | 1.15 |
| NCI-H460 | 0.516 | 0.513 | 0.614 | 0.514 | 0.499 | 0.535 | 0.563 | 0.576 | 0.512 | 0.508 | 0.335 | 0.474 | 0.671 | 0.476 | 0.323 | 1.01 | 0.895 | 0.902 | 0.926 | 0.929 |
| NCI-H1793 | 0.33 | 0.398 | 0.399 | 0.333 | 0.446 | 0.347 | 0.441 | 0.303 | 0.326 | 0.296 | 0.345 | 0.534 | – | 0.393 | 0.376 | – | – | – | – | – |
| NCI-H2023 | 0.419 | 0.442 | 0.432 | 0.352 | 0.244 | 0.444 | 0.463 | 0.337 | 0.26 | 0.236 | 0.335 | 0.426 | 0.407 | 0.398 | 0.314 | 0.746 | 0.755 | 0.714 | 0.601 | 0.724 |
| NCI-H1666 | 0.594 | 0.572 | 0.534 | 0.581 | 0.573 | 0.568 | 0.559 | 0.607 | 0.544 | 0.601 | 0.596 | 0.62 | 0.666 | 0.587 | 0.592 | 0.965 | 1 | 1.05 | 1.1 | 1.08 |
| HARA | 0.468 | 0.506 | 0.465 | 0.467 | 0.478 | 0.417 | 0.508 | 0.443 | 0.408 | 0.411 | 0.111 | – | 0.112 | 0.0991 | 0.102 | 1.22 | 1.17 | 1.09 | 0.957 | 1.09 |
| NCI-H358 | 0.381 | 0.391 | 0.323 | 0.371 | 0.353 | 0.283 | 0.317 | 0.231 | 0.296 | 0.337 | 0.109 | 0.12 | 0.093 | 0.1 | 0.0956 | 0.717 | 0.708 | 0.576 | 0.401 | 0.382 |
| NCI-H3122 | 0.425 | 0.402 | 0.378 | 0.394 | 0.364 | 0.45 | 0.423 | 0.374 | 0.333 | 0.324 | 0.396 | 0.391 | – | 0.466 | 0.379 | 0.272 | 0.301 | 0.271 | 0.297 | 0.309 |
| Calu-6 | – | – | – | – | – | – | – | – | – | – | – | – | – | – | – | 0.788 | 0.925 | 0.742 | 0.75 | 0.773 |
| NCI-H2342 | 0.658 | 0.607 | 0.563 | 0.553 | 0.662 | 0.538 | 0.785 | 0.552 | 0.633 | 0.545 | 0.499 | 0.468 | 0.55 | 0.608 | 0.597 | – | – | – | – | – |
| NCI-H1563 | 0.684 | 0.719 | 0.675 | 0.668 | 0.676 | 0.601 | 0.668 | 0.658 | 0.702 | 0.709 | – | – | – | – | – | 0.948 | 1.03 | 0.904 | 0.77 | 0.802 |
| NCI-H1299 | – | – | – | – | – | – | – | – | – | – | – | – | – | – | – | 0.977 | 0.998 | 0.648 | 0.973 | 0.993 |
| NCI-H1623 | 0.633 | 0.571 | 0.563 | 0.555 | 0.589 | 0.545 | 0.667 | 0.526 | 0.519 | 0.585 | 0.43 | 0.33 | 0.435 | 0.421 | 0.407 | – | – | – | – | – |
| SW 900 | 0.609 | 0.843 | 0.521 | 0.691 | 0.775 | 0.692 | 0.668 | 0.662 | 0.552 | 0.408 | 0.581 | 0.583 | 0.573 | 0.665 | 0.473 | – | – | – | – | – |
| NCI-H1648 | – | – | – | – | – | – | – | – | – | – | 0.602 | – | 0.316 | 0.497 | 0.562 | – | – | – | – | – |
| NCI-H1395 | 0.484 | 0.435 | 0.453 | 0.451 | 0.456 | 0.465 | 0.477 | 0.472 | 0.438 | 0.448 | 0.729 | 0.893 | 0.804 | 0.81 | 0.755 | – | – | – | – | – |
| IA-LM | – | – | – | – | – | – | – | – | – | – | – | – | – | – | – | 0.962 | 0.795 | 0.908 | 0.755 | 0.92 |
| A549 | 0.163 | 0.182 | 0.199 | 0.192 | 0.196 | 0.407 | 0.173 | 0.215 | 0.156 | 0.147 | – | – | – | – | – | 0.812 | 0.853 | 0.787 | 0.79 | 0.729 |
| NCI-H1792 | 0.253 | 0.344 | 0.249 | 0.316 | 0.31 | – | 0.374 | 0.37 | 0.254 | 0.251 | – | – | – | – | – | 0.841 | 1.1 | 0.999 | 0.962 | 1.03 |

Reference: the supplement of paper PMC10307832
